Data on 5 compounds can be found in publication PMC9890698 (BMC Biology, 2023).

Several values for one entry are separate records, joined by “and”; a condition that tells them apart may be missing. Identical values can stand only once. *1 amine or outer side, *2 acyl side, *3 side chain or, on linkers, in order; H or OH if unused. Where a SMILES comes first, the peptide text is derived from it. Bridges are numbered along the chain shown (N, C = ends). [ ]: non-standard residue; d: D form. The star is where a group is joined. Leu(3R-OH,Nα-propionyl) = CCC(=O)N[C@H](C(=O)*)[C@H](O)C(C)C; X1 = CC(C)[C@@H](O[*:3])[C@H](N[*:1])C(=O)[*:2]; NMeT = CN[C@H](C(=O)O)[C@@H](C)O; dPhLac = O=C(O)[C@H](O)Cc1ccccc1; NMeA = CN[C@@H](C)C(=O)O; NMeDha = C=C(NC)C(=O)O

The subject of assay [1] is washed human platelets (P2Y1-R/Gαq signaling). As to the kind of experiment: IP1 accumulation assay (HTRF) in washed human platelets. It counts as cell-based. The note with it: Gq inhibitor 100 nM, 2 h. As for the experimental part:
(§1) As performed in HEK293T cells, we thus quantified intracellular IP1 levels to monitor Gαq protein-dependent signaling pathways.
Human platelets were prepared from adult healthy volunteers free of antiplatelet or anti-inflammatory medication since at least ten days. […] After two steps of centrifugation and suspension in Tyrode’s buffer (140 mM NaCl, 5 mM KCl, 5 mM KH2PO4, 1 mM MgSO4, 10 mM HEPES, 5 mM glucose and 0.35% (w/v) BSA, pH 6,7), washed platelets were suspended in the same buffer adjusted to pH 7.4 and containing 1 mM CaCl2. The final platelet suspension was adjusted to 3.10^8 platelets/mL and rested for 45 min in the presence of 0.02 U/mL apyrase and 10 μM indomethacin at 37 °C prior experiments. PGI2 (0.5 μM) was added before centrifugation steps to avoid platelet activation.
(§2) Quantification of intracellular IP1 was performed using the HTRF (Homogeneous Time Resolved Fluorescence) IP1 competitive immunoassay (IP-One Tb kit. Cisbio. France) according to the manufacturer’s instructions. Briefly, 20,000 HEK293T/17 cells or 3.10^6 platelets were distributed in a 384-well white microplate (Greiner) and incubated with the indicated molecules for 30 min or 2 h at 37 °C in the presence of 50 mM of LiCl to prevent IP1 degradation. After addition of d2-labeled IP1 (acceptor) and anti-IP1-Cryptate (donor) for 1 h, the specific FRET signals were calculated by the fluorescence ratio of the acceptor and donor emission signal (665/620 nm) collected using a modified Infinite F500 (Tecan Group Ltd). Conversion of the HTRF ratio of each sample into IP1 concentrations was performed on the basis of a standard curve to determine the linear dynamic range of the assay.

Another assay concerns the target T1, Human P2Y1-R (Homo sapiens, UniProt P47900).
T1 construct: expressed in transfected cells; host or cells: HEK293T/17
As to the kind of experiment: IP1 accumulation assay (HTRF) in HEK293T cells expressing P2Y1-R. It counts as cell-based. Particulars: ADP 100 μM, MRS2179 10 μM, Gq inhibitor 100 nM, 2 h, result in words.

Another assay relates to HEK293T cells (pcDNA3.1). Briefly: IP1 accumulation assay (HTRF) in control HEK293T cells (pcDNA3.1). The class given is cell-based, Human. The note with it: pcDNA3.1, Gq inhibitor 100 nM, 2 h.
Text: Since Gαq protein activation is known to induce PLC activation leading to IP3 and subsequent cytosolic calcium release, we analyzed the constitutive Gαq-dependent P2Y1-R signaling by quantifying intracellular inositol monophosphate (IP1) using a monoclonal antibody-based competitive ELISA. IP1 is a downstream metabolite of IP3 that accumulates in cells following Gαq protein-coupled receptor activation, making it an ideal readout for Gαq protein-dependent signaling pathways.
as §2

Assay [2] relates to washed murine platelets (P2Y1-R/Gαq signaling). As to the kind of experiment: IP1 accumulation assay (HTRF) in washed murine platelets. It counts as cell-based, mouse. The note with it: Gq inhibitor 100 nM, 2 h. As for the experimental part:
as §1
Platelet-rich plasma (PRP) was obtained by mixing blood with 1 volume of modified Hepes Tyrode’s buffer (137 mM NaCl, 2 mM KCl, 12 mM NaHCO3, 0.3 mM NaH2PO4, 1 mM MgCl2, 2 mM CaCl2, 5.5 mM glucose, 5 mM HEPES, and 0.35% (w/v) BSA, pH 6.7) followed by a centrifugation at 150 g for 2 min at 37 °C. Then, platelets were pelleted by centrifugation at 1000 g for 4 min, resuspended in modified Hepes Tyrode’s buffer (pH 7.4), adjusted to 3.10^8 platelets/mL in the presence of 0.02 U/mL of apyrase and 10 μM indomethacin and rested for 45 minutes at 37°C before platelet stimulation. PGI2 (0.5 μM) was added before centrifugation steps to avoid platelet activation.
as §2

The next assay concerns P2Y12-R. Particulars: result in words; cited from earlier work.
The test system of a further assay is washed human platelets. Particulars: TRAP stimulation, result in words. Here is the method:
For platelet dense granule secretion, washed human platelets were stimulated with 50 μM TRAP (10 min, 37 °C) and stained with conjugated anti-CD63 FITC-conjugated antibody (BD Biosciences reference 557288. 1:5) for 15 min at room temperature. The platelets were then diluted into 1 mL PBS and samples were then kept in the dark until analysis by flow cytometry. The results are expressed as median fluorescence intensity (MFI).

T1 sequence (P47900 whole entry): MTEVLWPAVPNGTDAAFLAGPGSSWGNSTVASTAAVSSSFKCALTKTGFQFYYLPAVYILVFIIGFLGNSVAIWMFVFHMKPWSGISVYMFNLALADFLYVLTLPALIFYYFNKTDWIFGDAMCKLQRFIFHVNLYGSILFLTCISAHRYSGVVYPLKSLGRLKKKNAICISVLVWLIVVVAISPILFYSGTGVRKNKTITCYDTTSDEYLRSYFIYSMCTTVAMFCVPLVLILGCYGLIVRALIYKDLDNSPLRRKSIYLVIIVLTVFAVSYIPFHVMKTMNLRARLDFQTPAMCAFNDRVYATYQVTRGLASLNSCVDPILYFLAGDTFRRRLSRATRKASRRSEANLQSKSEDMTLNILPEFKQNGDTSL

`C=C1C(=O)N[C@@H](C)C(=O)N(C)[C@@H](C)C(=O)N[C@@H]([C@H](OC(=O)[C@@H](NC(=O)CC)[C@H](O)C(C)C)C(C)C)C(=O)N(C)[C@@H]([C@@H](C)OC)C(=O)O[C@H](C(C)C)[C@H](NC(C)=O)C(=O)O[C@H](Cc2ccccc2)C(=O)N1C` [FR900359] (Ac-[X1][dPhLac][NMeDha]A[NMeA][X1](Leu(3R-OH,Nα-propionyl))[NMeT](Me); ester 1-C): the “IP1 concentration (% matched basal values)” value in assay [1] (human platelets, individual donors) was 19.0758 % matched basal values and 11.9666 % matched basal values and 43.5394 % matched basal values and 60.8621 % matched basal values and 37.3209 % matched basal values and 49.8124 % matched basal values and 75.4834 % matched basal values and 64.9734 % matched basal values and 85.7248 % matched basal values and 88.8134 % matched basal values and 81.06 % matched basal values and 83.4552 % matched basal values and 77.0271 % matched basal values and 36.4555 % matched basal values and 43.6521 % matched basal values and 9.5459 % matched basal values; in assay [2] (murine platelets, individual mice), 27.5986 % matched basal values and 38.7127 % matched basal values and 47.9185 % matched basal values and 40.8858 % matched basal values and 59.9249 % matched basal values and 76.9346 % matched basal values and 9.098 % matched basal values and 14.2482 % matched basal values and 23.5315 % matched basal values and 11.8913 % matched basal values and 61.9938 % matched basal values and 36.9021 % matched basal values and 16.0009 % matched basal values. The “Effect on IP1 levels” value in assay [1] (washed human platelets, ADP 100 μM, antagonists 10 μM, apyrase 0.02 U/mL, result in words) was “inhibited”; in assay [2] (washed murine platelets, ADP 100 μM, MRS2179 10 μM, apyrase 0.02 U/mL, result in words), “inhibited”. On Human P2Y1-R, the “Effect on IP1 production” value was “significantly reduced”. Also, the “IP1 concentration” value in the assay with HEK293T cells (pcDNA3.1) is 132.385 nM and 158.041 nM and 95.7319 nM and 85.9635 nM and 143.254 nM.
For the compound `CSCCNc1nc(SCCC(F)(F)F)nc2c1ncn2[C@@H]1O[C@H](COP(=O)(O)OP(=O)(O)C(Cl)(Cl)P(=O)(O)O)[C@@H](O)[C@H]1O` [cangrelor], the “Behaviour at P2Y12-R constitutive signaling” value (from here on “Behaviour”) with P2Y12-R is given as “inverse agonists”.
For `CCCCOC(=O)N1CCN(C(=O)[C@H](CP(=O)(O)O)NC(=O)c2cc(N3CC[C@H](OC)C3)nc(-c3ccccc3)n2)CC1` [selatogrel], the “Behaviour” value in the assay with P2Y12-R is “inverse agonists”.
Regarding `CCCSc1nc(N[C@@H]2C[C@H]2c2ccc(F)c(F)c2)c2nnn([C@@H]3C[C@H](OCCO)[C@@H](O)[C@H]3O)c2n1` [ticagrelor], the “Behaviour” value in the assay with P2Y12-R is recorded as “inverse agonists”.
“thrombin receptor activating peptide [TRAP]”: the “CD63 exposure at the platelet surface” value in the assay on washed human platelets is listed as “strong exposure of CD63”.
